Laboratory results taken from ChEMBL document CHEMBL1201862, “PubChem BioAssay data set” (2004).
Active and inactive are the calls of the source.

Assays:
[1] = cytotoxicity in HEK293 background cells – cell-based, dry powder, set 2, counter-screen for EBV LMP1 inhibitor project, dose response (AID 624374); type: functional
[2] = Counterscreen for activators of the function of SWI/SNF related, matrix associated, actin dependent regulator of chromatin, subfamily a, member 2 (SMARCA2, BRM): Luminescence-based cell-based high throughput dose response assay to identify non-selective compounds using the VP16 reporter assay.; type: functional
[3] = molecular target: SWI/SNF-related matrix-associated actin-dependent regulator of chromatin subfamily A member 2 (Homo sapiens, UniProt P51531); test: Luminescence-based cell-based high throughput dose response assay to identify activators of the function of SWI/SNF related, matrix associated, actin dependent regulator of chromatin, subfamily a, member 2 (SMARCA2, BRM).; type: functional
[4] = molecular target: Mu-type opioid receptor (Homo sapiens, UniProt P35372); type: functional, cell-based;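 note: U2OS cells with beta-arrestin recruitment to OPRM1 by beta-gal complementation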
[5] = molecular target: 5-hydroxytryptamine receptor 2A (Mus musculus, UniProt P35363); type: functional, cell-based;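 note: CHO-K1 cells with tagged receptor and beta-arrestin; agonist potency measured as compound-induced activation of the receptor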
[6] = tested on: BJ; test: BJ-TERT-LT-ST fibroblast viability loss – cell-based, RAS-independent, luminescence, dose response (AID 1935); type: functional; conditions: Homo sapiens;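 note: BJ fibroblasts immortalized with TERT plus LT and ST oncogenes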
[7] = Luminescence Cell-Based Dose Confirmation HTS to Identify Inhibitors of Platelet Dense Granule Release. [Related pubchem assays: 1663 (Primary HTS), 1678 (Summary of Project)]; type: functional
[8] = off-target signal loss in HeLa-CEM21 co-culture – HeLa F-luc CTL cells, cherry-picked, counter-screen for HIV-1 Env fusion inhibitor project, dose response (AID 652040); type: functional, cell-based;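 note: potency for signal decrease marking cytotoxic or nonspecific inhibition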
[9] = HIV-1 AD8 envelope cell-cell fusion blockers – cherry-pick, dose response (AID 652062); type: functional, cell-based;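 note: luciferase signal from cell-cell fusion driven by HIV-1 clade B AD8 Env; potency is for inhibitors of fusion seen as a drop in luminescence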
[10] = blockers of HIV-1 envelope-mediated cell-cell fusion – cherry-pick, dose response (AID 652057); type: functional, cell-based
[11] = tested on: BJ; test: growth inhibition of engineered Ras-driven BJ cells – cell-based, alamar blue fluorescence, cherrypicked samples, dose response (AID 2631); type: functional; conditions: Homo sapiens;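 note: confirmatory dose-response assay in RAS-dependent BJ fibroblasts engineered with TERT, LT and ST, with cytotoxicity read by fluorescence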
[12] = viability loss in CEM21 cells – cell-based, CellTiter-Glo luminescence, cherry-picked, cytotoxicity control for viral fusion inhibitor project, dose response (AID 652042); type: functional;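 note: potency for signal decrease meaning cytotoxicity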
[13] = A Cell Based Secondary Assay To Explore Cytotoxicity of Compounds that Sensitize Mycobacterium Tuberculosis to Beta-Lactam Antibiotics.; type: functional
[14] = tested on: BJ; test: cells; type: functional, cell-based; conditions: Homo sapiens
[15] = tested on: INS1; test: INS-1E survival protection against cytokine death – cell-based, luminescence, retest, dose response (AID 449756); type: functional; conditions: Rattus norvegicus;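 note: cell death triggered by IL-1 beta plus TNF-alpha plus IFN-gamma mixture; protective hits raise ATP signal compared with cytokine alone wells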
[16] = tested on: BJ; test: BJ-TERT fibroblast viability loss – cell-based, RAS-independent, luminescence, dose response (AID 1933); type: functional; conditions: Homo sapiens
[17] = DRD fibroblast viability loss – cell-based, non-viral oncogenic, luminescence, dose response (AID 1934); type: functional; conditions: Homo sapiens
[18] = molecular target: Luciferin 4-monooxygenase (Photinus pyralis, UniProt P08659); test: inhibition of purified Photinus pyralis luciferase – biochemical, luminescence, dose response (AID 1891)
[19] = molecular target: T1, Small ubiquitin-related modifier 1 (Homo sapiens, UniProt P63165); test: SUMO1 protein interaction blockers, potency – biochemical, fluorescence polarization, uHTS hits, dose response (AID 624382); type: functional; conditions: read-out: IC50_Mean
[20] = molecular target: T1, Small ubiquitin-related modifier 1; test: SUMO1 protein-protein binding blockers, potency – biochemical, FRET, dose response (AID 624383); type: functional; conditions: read-out: IC50_Mean
[21] = viability of uninfected HEp-2 cells – cell-based, HTS, cytotoxicity control for RSV inhibitor project, dose response (AID 2410); type: functional; conditions: human respiratory syncytial virus
[22] = Counterscreen for inhibitors of Trypanosoma brucei methionyl tRNA synthetase (MetRS): Luminescence-based cell-based high throughput dose response assay to identify compounds that are cytotoxic to Jurkat human T lymphocyte cells.; type: functional
[23] = molecular target: T2, Methionyl-tRNA synthetase, putative (Trypanosoma brucei brucei, UniProt Q38C91); type: functional, Trypanosoma brucei brucei strain 927/4 GUTat10.1
T2 sequence (Q38C91 whole entry): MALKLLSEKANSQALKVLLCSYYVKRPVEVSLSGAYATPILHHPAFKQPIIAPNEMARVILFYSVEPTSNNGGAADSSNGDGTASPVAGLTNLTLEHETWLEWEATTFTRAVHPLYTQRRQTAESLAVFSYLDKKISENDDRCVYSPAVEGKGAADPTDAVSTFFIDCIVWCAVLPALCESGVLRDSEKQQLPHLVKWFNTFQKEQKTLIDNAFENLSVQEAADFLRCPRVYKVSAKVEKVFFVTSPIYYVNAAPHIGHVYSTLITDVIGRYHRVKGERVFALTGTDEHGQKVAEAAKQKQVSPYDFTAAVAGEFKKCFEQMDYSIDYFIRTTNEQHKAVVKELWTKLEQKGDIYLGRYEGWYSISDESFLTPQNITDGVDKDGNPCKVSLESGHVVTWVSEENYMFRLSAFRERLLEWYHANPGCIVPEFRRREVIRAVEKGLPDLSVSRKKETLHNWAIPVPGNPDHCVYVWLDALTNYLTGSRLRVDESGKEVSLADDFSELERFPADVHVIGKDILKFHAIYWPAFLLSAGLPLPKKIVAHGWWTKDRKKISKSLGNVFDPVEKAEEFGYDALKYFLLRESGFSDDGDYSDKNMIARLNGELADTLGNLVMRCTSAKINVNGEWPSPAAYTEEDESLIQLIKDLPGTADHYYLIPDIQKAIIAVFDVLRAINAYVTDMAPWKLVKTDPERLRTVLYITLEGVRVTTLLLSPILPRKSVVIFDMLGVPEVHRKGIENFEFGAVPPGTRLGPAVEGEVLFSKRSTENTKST

[24] = molecular target: T2, Methionyl-tRNA synthetase, putative; type: functional, Trypanosoma brucei brucei strain 927/4 GUTat10.1; remark: listed apart in the source

T1 sequence (P63165 whole entry): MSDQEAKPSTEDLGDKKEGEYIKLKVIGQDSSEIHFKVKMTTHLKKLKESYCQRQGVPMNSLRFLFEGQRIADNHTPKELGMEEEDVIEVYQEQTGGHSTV
Sequence of SWI/SNF-related matrix-associated actin-dependent regulator of chromatin subfamily A member 2 (P51531 whole entry): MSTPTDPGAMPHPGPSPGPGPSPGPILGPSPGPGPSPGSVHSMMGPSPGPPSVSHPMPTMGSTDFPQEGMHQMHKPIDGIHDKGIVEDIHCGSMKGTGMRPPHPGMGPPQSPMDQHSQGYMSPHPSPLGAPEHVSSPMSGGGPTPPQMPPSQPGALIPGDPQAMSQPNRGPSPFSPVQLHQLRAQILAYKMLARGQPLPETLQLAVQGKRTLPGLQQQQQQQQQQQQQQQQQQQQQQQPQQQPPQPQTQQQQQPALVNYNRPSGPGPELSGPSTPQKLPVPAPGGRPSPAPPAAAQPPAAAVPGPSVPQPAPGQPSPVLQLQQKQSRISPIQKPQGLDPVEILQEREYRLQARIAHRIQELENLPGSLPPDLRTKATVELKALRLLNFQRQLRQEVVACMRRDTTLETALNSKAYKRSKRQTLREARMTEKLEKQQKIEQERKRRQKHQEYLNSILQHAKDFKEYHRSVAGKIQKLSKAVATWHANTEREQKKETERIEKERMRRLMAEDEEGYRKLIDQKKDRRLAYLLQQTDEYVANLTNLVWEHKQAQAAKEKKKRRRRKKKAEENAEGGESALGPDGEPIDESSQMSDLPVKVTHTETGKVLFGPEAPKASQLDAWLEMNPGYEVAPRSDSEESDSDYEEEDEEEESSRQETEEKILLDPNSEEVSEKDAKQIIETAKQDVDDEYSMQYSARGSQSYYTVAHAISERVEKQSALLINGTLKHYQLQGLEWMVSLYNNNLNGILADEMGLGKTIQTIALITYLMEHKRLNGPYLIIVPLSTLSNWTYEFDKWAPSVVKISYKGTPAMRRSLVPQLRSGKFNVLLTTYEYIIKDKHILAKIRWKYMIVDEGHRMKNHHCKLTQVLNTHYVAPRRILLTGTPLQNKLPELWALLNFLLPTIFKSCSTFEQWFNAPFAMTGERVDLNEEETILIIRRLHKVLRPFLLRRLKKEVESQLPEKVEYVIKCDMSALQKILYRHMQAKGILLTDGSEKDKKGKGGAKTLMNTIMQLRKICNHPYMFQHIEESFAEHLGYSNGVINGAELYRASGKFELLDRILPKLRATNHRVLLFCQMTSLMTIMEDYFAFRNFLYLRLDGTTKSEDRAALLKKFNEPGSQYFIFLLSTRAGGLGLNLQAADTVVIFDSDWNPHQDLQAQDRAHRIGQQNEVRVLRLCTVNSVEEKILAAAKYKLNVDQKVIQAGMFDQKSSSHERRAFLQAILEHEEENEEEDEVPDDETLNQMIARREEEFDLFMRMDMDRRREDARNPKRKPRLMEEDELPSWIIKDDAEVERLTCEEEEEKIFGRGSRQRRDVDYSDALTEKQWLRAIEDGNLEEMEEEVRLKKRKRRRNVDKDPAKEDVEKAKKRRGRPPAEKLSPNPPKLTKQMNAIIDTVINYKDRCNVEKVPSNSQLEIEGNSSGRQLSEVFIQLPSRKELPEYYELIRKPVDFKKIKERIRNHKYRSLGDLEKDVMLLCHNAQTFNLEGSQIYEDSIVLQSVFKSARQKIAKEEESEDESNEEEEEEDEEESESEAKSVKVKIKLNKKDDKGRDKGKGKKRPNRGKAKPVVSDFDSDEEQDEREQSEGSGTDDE
Sequence of 5-hydroxytryptamine receptor 2A (P35363 whole entry): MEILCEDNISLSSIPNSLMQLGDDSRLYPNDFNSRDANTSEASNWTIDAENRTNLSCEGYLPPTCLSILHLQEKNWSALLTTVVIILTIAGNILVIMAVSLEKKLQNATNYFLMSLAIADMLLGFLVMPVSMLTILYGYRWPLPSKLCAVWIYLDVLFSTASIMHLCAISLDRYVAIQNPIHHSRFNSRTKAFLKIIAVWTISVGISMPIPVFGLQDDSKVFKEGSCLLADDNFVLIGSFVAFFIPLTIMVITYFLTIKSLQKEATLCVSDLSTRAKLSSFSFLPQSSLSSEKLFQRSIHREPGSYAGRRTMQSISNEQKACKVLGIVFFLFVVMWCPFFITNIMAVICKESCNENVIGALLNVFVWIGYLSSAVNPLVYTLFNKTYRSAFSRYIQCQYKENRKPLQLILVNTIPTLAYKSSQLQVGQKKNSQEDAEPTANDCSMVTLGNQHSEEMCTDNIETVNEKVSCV
Sequence of Luciferin 4-monooxygenase (P08659 whole entry): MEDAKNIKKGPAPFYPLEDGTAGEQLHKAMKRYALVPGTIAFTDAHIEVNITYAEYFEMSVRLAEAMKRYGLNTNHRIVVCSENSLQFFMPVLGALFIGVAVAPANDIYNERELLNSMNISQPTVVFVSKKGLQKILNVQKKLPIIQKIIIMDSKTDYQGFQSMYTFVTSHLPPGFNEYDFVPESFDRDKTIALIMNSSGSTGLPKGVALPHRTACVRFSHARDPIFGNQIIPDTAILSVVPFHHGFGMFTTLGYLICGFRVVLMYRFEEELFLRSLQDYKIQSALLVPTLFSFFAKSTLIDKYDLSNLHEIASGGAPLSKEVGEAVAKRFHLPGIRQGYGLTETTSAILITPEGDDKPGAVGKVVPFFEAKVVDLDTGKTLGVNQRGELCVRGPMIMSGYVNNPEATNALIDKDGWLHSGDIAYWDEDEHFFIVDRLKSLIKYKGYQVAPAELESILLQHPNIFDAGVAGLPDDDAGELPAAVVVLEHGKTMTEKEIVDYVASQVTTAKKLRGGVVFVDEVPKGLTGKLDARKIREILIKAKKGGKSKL
Sequence of Mu-type opioid receptor (P35372 whole entry): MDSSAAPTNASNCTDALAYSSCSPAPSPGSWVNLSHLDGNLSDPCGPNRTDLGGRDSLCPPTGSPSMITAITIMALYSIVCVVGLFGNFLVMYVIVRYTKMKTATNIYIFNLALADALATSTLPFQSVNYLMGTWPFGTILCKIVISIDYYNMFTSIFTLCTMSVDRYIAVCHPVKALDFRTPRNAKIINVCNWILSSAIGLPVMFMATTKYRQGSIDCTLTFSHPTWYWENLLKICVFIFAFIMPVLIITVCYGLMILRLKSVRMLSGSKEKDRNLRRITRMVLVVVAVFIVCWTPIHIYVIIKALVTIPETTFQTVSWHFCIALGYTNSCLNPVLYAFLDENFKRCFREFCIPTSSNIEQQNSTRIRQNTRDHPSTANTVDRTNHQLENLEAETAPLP

O=C(Cc1ccccn1)NCC[C@@H]1CC[C@H](NC(=O)Nc2ccc(Cl)cc2)[C@H](CO)O1
AbsAC35 [1]: 154.48 µM

COc1cccc(-c2cnc3c(NC=O)cc(-c4ccc(N5CCN(C)CC5)cc4)cn23)c1
EC50 [2]: > 91.2 µM (inactive)
EC50 [3]: > 10.1 µM (inactive)

Cc1cccc(CN2CCN(c3ncccn3)CC2)c1
EC50 [4]: 92.5 µM (inactive)
EC50 [5]: 0.182 µM (active)

O=C(Nc1nc2ccccc2[nH]1)c1ccccc1F
EC50 [6]: 6.85 µM (inconclusive)
EC50 [7]: 1.13 µM (active)
AC50 [8]: 6.83 µM (active)
AC50 [9]: 6.17 µM (active)
AC50 [10]: 3.82 µM (active)
EC50 [11]: > 133 µM (inactive)
AC50 [12]: 5.17 µM (active)
CC50 [13]: 8.56 µM (active)
EC50 [14]: 2.23 µM (active)
AC50 [15]: 3.06 µM (active)
EC50 [16]: 2.44 µM (active)
EC50 [17]: 1.86 µM (active)
EC50 [18]: 1.19 µM (active)

CCn1c(SCC(=O)NC(=O)NCc2ccco2)nc2sc(C)c(C)c2c1=O
IC50 [19]: > 66.6 µM (inactive)
IC50 [20]: 21.9 µM (inactive)

O=C(NCc1nc2ccccc2[nH]1)C1=C[C@H](c2ccc3c(c2)OCO3)C[C@H](OCc2ccc(CO)cc2)O1
CC50 [21]: > 50 µM (active)
IC50 [22]: 83.3 µM (inactive)
IC50 [23]: 2.79 µM (active)
IC50 [24]: 8.12 µM (active)
